Source: patent publication US20230391768A2, “IMIDAZOPYRIDINE DERIVATIVES AND AZA-IMIDAZOPYRIDINE DERIVATIVES AS JANUS KINASE 2 INHIBITORS AND USES THEREOF” (Dana-Farber Cancer Institute, Inc., priority 2018, published 2023)

Legend:
Experiment in all cases: KINOMEscan
Format in all cases: binding
Details in all cases: read-out: percent of control
PKAC-beta = PKAC-beta (Homo sapiens (Human), UniProt P22694)
Protocol: (§1) In vitro profiling of Compound I-2 (1 μM) was performed using the DiscoveRx KINOMEscan® platform.

MELK = MELK (Homo sapiens (Human), UniProt Q14680)
Protocol: as §1

[1] = biological target: RPS6KA4 (Kin.Dom.2-C-terminal) (Homo sapiens (Human), UniProt O75676)
Protocol: as §1

AKT2 = AKT2 (Homo sapiens (Human), UniProt P31751)
Protocol: as §1

SYK = SYK (Homo sapiens (Human), UniProt P43405)
Protocol: as §1

ROCK2 = ROCK2 (Homo sapiens (Human), UniProt O75116)
Protocol: as §1

EPHA5 = EPHA5 (Homo sapiens (Human), UniProt P54756)
Protocol: as §1

INSRR = INSRR (Homo sapiens (Human), UniProt P14616)
Protocol: as §1

PIK3CA = PIK3CA (Homo sapiens (Human), UniProt P42336)
Protocol: as §1

ZAP70 = ZAP70 (Homo sapiens (Human), UniProt P43403)
ZAP70, sequence (P43403 whole entry): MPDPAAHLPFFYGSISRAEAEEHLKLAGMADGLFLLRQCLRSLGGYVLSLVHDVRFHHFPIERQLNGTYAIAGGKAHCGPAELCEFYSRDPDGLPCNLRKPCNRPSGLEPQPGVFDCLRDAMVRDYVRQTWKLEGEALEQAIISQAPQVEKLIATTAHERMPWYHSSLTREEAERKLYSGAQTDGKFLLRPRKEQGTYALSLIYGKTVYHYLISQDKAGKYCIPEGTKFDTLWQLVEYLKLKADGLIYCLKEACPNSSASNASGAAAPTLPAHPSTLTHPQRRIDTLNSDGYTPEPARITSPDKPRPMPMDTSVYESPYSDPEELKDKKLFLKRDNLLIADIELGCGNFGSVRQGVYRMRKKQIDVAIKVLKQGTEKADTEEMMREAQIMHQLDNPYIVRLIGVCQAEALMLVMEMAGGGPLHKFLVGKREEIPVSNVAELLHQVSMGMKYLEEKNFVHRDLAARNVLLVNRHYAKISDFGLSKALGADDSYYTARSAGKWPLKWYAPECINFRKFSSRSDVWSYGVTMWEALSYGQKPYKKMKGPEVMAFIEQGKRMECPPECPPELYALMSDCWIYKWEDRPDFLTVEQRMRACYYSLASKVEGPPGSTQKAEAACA
Protocol: as §1

LATS1 = LATS1 (Homo sapiens (Human), UniProt O95835)
LATS1, sequence (O95835 whole entry): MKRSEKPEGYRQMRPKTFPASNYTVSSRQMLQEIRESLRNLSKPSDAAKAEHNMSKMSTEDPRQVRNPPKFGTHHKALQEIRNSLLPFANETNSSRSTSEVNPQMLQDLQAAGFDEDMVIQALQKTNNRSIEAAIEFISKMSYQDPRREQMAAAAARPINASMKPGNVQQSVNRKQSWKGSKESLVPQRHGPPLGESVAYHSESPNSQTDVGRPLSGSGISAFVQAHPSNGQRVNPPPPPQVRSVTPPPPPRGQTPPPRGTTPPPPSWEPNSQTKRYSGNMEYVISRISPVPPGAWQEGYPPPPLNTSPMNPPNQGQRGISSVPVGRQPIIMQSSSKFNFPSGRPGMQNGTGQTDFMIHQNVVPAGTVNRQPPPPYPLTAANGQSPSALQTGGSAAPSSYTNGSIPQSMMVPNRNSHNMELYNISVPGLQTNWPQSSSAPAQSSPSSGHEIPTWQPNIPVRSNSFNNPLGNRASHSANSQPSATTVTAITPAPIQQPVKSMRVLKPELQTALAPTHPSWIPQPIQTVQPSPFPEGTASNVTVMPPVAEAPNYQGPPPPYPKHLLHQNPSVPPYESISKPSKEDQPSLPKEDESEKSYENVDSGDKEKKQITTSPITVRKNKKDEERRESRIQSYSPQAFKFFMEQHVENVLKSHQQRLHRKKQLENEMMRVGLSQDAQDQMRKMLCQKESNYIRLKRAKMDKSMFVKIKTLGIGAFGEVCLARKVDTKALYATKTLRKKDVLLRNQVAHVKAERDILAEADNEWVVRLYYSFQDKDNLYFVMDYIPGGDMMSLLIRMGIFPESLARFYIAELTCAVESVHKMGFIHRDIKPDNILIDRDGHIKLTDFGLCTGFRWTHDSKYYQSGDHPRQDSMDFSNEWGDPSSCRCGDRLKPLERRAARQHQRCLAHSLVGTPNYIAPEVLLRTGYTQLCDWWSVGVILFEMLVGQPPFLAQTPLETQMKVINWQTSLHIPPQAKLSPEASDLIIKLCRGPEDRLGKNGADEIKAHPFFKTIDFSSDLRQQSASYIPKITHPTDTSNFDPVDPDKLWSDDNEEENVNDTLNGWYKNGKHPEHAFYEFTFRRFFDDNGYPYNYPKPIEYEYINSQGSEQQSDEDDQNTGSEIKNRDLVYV
Protocol: as §1

FGR = FGR (Homo sapiens (Human), UniProt P09769)
FGR, sequence (P09769 whole entry): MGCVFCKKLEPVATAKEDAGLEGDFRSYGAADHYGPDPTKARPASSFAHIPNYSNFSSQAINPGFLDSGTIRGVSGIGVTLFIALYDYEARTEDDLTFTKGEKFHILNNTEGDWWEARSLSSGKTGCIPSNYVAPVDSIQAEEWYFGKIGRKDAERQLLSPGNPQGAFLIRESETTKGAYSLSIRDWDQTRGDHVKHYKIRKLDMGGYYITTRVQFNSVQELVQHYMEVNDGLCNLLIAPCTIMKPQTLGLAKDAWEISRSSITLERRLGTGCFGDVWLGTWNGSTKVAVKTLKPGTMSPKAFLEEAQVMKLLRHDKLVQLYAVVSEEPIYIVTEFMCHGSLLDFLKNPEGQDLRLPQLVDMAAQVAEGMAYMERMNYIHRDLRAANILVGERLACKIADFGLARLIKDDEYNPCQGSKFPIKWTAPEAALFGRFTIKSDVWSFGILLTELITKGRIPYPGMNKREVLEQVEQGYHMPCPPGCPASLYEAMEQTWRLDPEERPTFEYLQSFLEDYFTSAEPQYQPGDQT
Protocol: as §1

MAP3K1 = MAP3K1 (Homo sapiens (Human), UniProt Q13233)
Protocol: as §1

CAMK2A = CAMK2A (Homo sapiens (Human), UniProt Q9UQM7)
CAMK2A, sequence (Q9UQM7 whole entry): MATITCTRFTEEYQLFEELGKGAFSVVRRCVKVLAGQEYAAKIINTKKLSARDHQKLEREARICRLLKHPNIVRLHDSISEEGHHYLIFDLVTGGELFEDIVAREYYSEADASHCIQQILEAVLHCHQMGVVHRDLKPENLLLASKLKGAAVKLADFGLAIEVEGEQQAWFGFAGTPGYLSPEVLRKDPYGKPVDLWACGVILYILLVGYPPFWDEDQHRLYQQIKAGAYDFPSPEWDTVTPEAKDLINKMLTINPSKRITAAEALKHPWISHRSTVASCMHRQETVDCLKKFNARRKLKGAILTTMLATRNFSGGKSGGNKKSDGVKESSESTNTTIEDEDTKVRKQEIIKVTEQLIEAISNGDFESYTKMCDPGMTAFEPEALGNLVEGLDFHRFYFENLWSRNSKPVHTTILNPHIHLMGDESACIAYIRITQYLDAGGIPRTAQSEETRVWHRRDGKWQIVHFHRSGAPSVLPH
Protocol: as §1

ACVR1 = ACVR1 (Homo sapiens (Human), UniProt Q04771)
Protocol: as §1

FLT3 (D835Y) = FLT3 (D835Y) (Homo sapiens (Human), UniProt P36888, D835Y)
Protocol: as §1

PIK3CA(Q546K) = PIK3CA(Q546K) (Homo sapiens (Human), UniProt P42336, Q546K)
Protocol: as §1

DLK = DLK (Homo sapiens (Human), UniProt Q12852)
Protocol: as §1

BMX = BMX (Homo sapiens (Human), UniProt P51813)
Protocol: as §1

HCK = HCK (Homo sapiens (Human), UniProt P08631)
Protocol: as §1

CDK4 = CDK4 (Homo sapiens (Human), UniProt P11802)
Protocol: as §1

p38-delta = p38-delta (Homo sapiens (Human), UniProt O15264)
Protocol: as §1

TRKA = TRKA (Homo sapiens (Human), UniProt P04629)
Protocol: as §1

MERTK = MERTK (Homo sapiens (Human), UniProt Q12866)
Protocol: as §1

MUSK = MUSK (Homo sapiens (Human), UniProt O15146)
Protocol: as §1

MET(Y1235D) = MET(Y1235D) (Homo sapiens (Human), UniProt P08581, Y1235D)
Protocol: as §1

[2] = biological target: ABL1(F317I)-phosphorylated (Homo sapiens (Human), UniProt P00519, F317I)
Protocol: as §1

HIPK3 = HIPK3 (Homo sapiens (Human), UniProt Q9H422)
Protocol: as §1

KIT(D816V) = KIT(D816V) (Homo sapiens (Human), UniProt P10721, D816V)
Protocol: as §1

WNK2 = WNK2 (Homo sapiens (Human), UniProt Q9Y3S1)
WNK2, sequence (Q9Y3S1 whole entry): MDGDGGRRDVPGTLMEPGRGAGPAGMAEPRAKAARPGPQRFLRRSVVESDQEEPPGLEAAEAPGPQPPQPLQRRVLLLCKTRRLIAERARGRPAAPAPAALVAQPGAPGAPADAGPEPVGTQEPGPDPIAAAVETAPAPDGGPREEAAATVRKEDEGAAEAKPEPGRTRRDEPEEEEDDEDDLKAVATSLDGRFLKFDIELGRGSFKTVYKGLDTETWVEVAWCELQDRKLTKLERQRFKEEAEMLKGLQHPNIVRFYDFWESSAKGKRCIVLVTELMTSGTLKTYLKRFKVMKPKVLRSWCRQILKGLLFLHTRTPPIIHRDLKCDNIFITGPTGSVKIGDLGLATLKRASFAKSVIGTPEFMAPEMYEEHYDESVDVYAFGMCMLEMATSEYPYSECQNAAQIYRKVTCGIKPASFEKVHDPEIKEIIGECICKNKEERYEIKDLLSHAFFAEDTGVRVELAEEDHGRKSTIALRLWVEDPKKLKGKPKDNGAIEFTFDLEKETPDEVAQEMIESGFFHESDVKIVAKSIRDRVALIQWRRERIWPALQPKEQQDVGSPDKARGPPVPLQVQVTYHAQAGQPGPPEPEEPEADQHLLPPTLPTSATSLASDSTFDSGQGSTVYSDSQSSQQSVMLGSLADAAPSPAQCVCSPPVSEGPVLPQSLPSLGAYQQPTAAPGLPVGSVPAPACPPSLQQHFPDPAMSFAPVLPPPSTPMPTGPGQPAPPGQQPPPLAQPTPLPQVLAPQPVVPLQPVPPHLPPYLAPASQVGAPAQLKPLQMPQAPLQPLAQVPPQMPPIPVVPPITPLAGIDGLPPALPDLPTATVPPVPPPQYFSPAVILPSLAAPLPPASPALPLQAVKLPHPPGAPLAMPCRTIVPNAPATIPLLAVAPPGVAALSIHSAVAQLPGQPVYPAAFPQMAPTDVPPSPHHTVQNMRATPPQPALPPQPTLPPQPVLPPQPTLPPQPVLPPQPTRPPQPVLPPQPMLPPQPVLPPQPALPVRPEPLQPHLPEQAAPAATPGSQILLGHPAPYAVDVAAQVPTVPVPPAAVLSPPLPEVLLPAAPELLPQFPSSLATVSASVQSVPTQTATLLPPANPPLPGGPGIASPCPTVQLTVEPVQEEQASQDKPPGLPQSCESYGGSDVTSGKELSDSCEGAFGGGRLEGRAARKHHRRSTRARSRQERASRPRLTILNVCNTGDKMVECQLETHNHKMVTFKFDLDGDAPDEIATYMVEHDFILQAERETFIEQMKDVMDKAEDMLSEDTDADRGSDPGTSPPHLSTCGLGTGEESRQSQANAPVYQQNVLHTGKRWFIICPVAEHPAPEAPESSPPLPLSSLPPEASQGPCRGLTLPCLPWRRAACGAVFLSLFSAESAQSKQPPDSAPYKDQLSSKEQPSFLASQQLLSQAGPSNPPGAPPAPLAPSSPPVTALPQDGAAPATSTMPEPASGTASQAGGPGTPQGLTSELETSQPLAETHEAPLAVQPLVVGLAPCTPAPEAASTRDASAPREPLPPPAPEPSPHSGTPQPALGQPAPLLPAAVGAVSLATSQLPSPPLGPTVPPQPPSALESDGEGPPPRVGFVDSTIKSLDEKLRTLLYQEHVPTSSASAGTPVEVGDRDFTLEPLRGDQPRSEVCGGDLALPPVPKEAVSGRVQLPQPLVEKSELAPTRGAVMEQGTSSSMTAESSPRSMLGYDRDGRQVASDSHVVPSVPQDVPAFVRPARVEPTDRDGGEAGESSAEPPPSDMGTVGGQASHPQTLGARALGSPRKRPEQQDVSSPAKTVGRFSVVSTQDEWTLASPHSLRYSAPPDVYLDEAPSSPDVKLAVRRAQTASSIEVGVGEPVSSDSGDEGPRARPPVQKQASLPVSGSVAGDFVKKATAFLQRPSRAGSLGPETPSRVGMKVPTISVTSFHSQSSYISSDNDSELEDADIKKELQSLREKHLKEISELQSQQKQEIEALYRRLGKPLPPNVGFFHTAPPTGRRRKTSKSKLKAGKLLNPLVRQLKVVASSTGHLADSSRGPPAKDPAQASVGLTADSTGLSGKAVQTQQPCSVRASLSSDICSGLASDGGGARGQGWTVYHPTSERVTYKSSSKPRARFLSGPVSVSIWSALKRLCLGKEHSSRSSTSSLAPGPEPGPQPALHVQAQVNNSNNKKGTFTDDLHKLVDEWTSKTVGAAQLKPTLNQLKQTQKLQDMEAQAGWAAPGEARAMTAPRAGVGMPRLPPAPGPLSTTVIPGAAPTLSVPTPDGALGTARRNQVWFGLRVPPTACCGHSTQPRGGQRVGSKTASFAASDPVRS
Protocol: as §1

EPHB4 = EPHB4 (Homo sapiens (Human), UniProt P54760)
Protocol: as §1

TAOK2 = TAOK2 (Homo sapiens (Human), UniProt Q9UL54)
Protocol: as §1

TNK2 = TNK2 (Homo sapiens (Human), UniProt Q07912)
Protocol: as §1

BRK = BRK (Homo sapiens (Human), UniProt Q13882)
Protocol: as §1

KIT-autoinhibited = KIT-autoinhibited (Homo sapiens (Human), UniProt P10721)
Protocol: as §1

BRSK2 = BRSK2 (Homo sapiens (Human), UniProt Q8IWQ3)
Protocol: as §1

TYR = TYR (Homo sapiens (Human), UniProt Q06418)
Protocol: as §1

DDR2 = DDR2 (Homo sapiens (Human), UniProt Q16832)
Protocol: as §1

[3] = biological target: RSK3 (Kin.Dom.2-C-terminal) (Homo sapiens (Human), UniProt Q15349)
Protocol: as §1

CCN1CCN(Cc2cc(NC(=O)c3ccc(C)c(-c4ccc5nc(NC(=O)C6CC6)cn5n4)c3)cc(C(F)(F)F)c2)CC1 [Compound I-2, 3-(2-(cyclopropanecarboxamido)imidazo[1,2-b]pyridazin-6-yl)-N-(3-((4-ethylpiperazin-1-yl)methyl)-5-(trifluoromethyl)phenyl)-4-methylbenzamide]
remaining binding at 1 µM (PKAC-beta): 92%
remaining binding at 1 µM (MELK): 95%
remaining binding at 1 µM [1]: 79%
remaining binding at 1 µM (AKT2): 100%
remaining binding at 1 µM (SYK): 1.9%
remaining binding at 1 µM (ROCK2): 82%
remaining binding at 1 µM (EPHA5): 2.3%
remaining binding at 1 µM (INSRR): 0.55%
remaining binding at 1 µM (PIK3CA): 78%
remaining binding at 1 µM (ZAP70): 66%
remaining binding at 1 µM (LATS1): 87%
remaining binding at 1 µM (FGR): 0.15%
remaining binding at 1 µM (MAP3K1): 97%
remaining binding at 1 µM (CAMK2A): 100%
remaining binding at 1 µM (ACVR1): 100%
remaining binding at 1 µM (FLT3 (D835Y)): 23%
remaining binding at 1 µM (PIK3CA(Q546K)): 76%
remaining binding at 1 µM (DLK): 15%
remaining binding at 1 µM (BMX): 65%
remaining binding at 1 µM (HCK): 0%
remaining binding at 1 µM (CDK4): 46%
remaining binding at 1 µM (p38-delta): 41%
remaining binding at 1 µM (TRKA): 0.75%
remaining binding at 1 µM (MERTK): 0.25%
remaining binding at 1 µM (MUSK): 0.6%
remaining binding at 1 µM (MET(Y1235D)): 8.7%
remaining binding at 1 µM [2]: 5.1%
remaining binding at 1 µM (HIPK3): 56%
remaining binding at 1 µM (KIT(D816V)): 32%
remaining binding at 1 µM (WNK2): 72%
remaining binding at 1 µM (EPHB4): 1.3%
remaining binding at 1 µM (TAOK2): 8.6%
remaining binding at 1 µM (TNK2): 100%
remaining binding at 1 µM (BRK): 100%
remaining binding at 1 µM (KIT-autoinhibited): 79%
remaining binding at 1 µM (BRSK2): 93%
remaining binding at 1 µM (TYR): 26%
remaining binding at 1 µM (DDR2): 0.1%
remaining binding at 1 µM [3]: 98%

CCN1CCN(Cc2cc(NC(=O)c3ccc(C)c(-c4ccc5nc(NC(=O)C6CC6)cn5c4)c3)cc(C(F)(F)F)c2)CC1 [Compound I-6, 3-(2-(cyclopropanecarboxamido)imidazo[1,2-a]pyridin-6-yl)-N-(3-((4-ethylpiperazin-1-yl)methyl)-5-(trifluoromethyl)phenyl)-4-methylbenzamide]
remaining binding at 1 µM (PKAC-beta): 78%
remaining binding at 1 µM (MELK): 100%
remaining binding at 1 µM [1]: 100%
remaining binding at 1 µM (AKT2): 98%
remaining binding at 1 µM (SYK): 0.65%
remaining binding at 1 µM (ROCK2): 94%
remaining binding at 1 µM (EPHA5): 2.5%
remaining binding at 1 µM (INSRR): 3.8%
remaining binding at 1 µM (PIK3CA): 96%
remaining binding at 1 µM (ZAP70): 30%
remaining binding at 1 µM (LATS1): 85%
remaining binding at 1 µM (FGR): 0%
remaining binding at 1 µM (MAP3K1): 94%
remaining binding at 1 µM (CAMK2A): 100%
remaining binding at 1 µM (ACVR1): 100%
remaining binding at 1 µM (FLT3 (D835Y)): 27%
remaining binding at 1 µM (PIK3CA(Q546K)): 94%
remaining binding at 1 µM (DLK): 26%
remaining binding at 1 µM (BMX): 42%
remaining binding at 1 µM (HCK): 0.05%
remaining binding at 1 µM (CDK4): 36%
remaining binding at 1 µM (p38-delta): 32%
remaining binding at 1 µM (TRKA): 0%
remaining binding at 1 µM (MERTK): 0.25%
remaining binding at 1 µM (MUSK): 2.1%
remaining binding at 1 µM (MET(Y1235D)): 8.9%
remaining binding at 1 µM [2]: 9.4%
remaining binding at 1 µM (HIPK3): 98%
remaining binding at 1 µM (KIT(D816V)): 22%
remaining binding at 1 µM (WNK2): 57%
remaining binding at 1 µM (EPHB4): 0%
remaining binding at 1 µM (TAOK2): 7.6%
remaining binding at 1 µM (TNK2): 99%
remaining binding at 1 µM (BRK): 91%
remaining binding at 1 µM (KIT-autoinhibited): 85%
remaining binding at 1 µM (BRSK2): 71%
remaining binding at 1 µM (TYR): 47%
remaining binding at 1 µM (DDR2): 0%
remaining binding at 1 µM [3]: 89%
